Values after ≈ are worked out from the molar mass of the structure shown.
Each compound was assayed against T1, HIV-1 protease (Human immunodeficiency virus type 1 group M subtype B, UniProt P04585) (assay: biochemical). Settings: read-out: Fluorescence Assay IC8.
T1 construct: Purified HIV-1 protease was obtained as described above; made in house; host or cells: E. coli K12 L507/pHP10D (NRRL B-18560)
Assay type: biochemical
Protocol: C. Preparation of Protease Fraction
A culture of E. coli K12 L507/pHP10D was grown to mid-log phase at 32° C. in LB media containing 12.5 μg/ml tetracycline. The cultivation temperature was quickly elevated to 40° C. to induce gene expression, and the cells were allowed to grow for 2.5 hours at this temperature before the culture was quickly chilled on ice. The cells were centrifuged and the cell pellet was resuspended in 20 mL 50 mmol MES buffer (pH 6.0) containing 1 mmol EDTA, 1 mmol DTT, 1 mmol PMSF and 10% glycerol ("Buffer A"). Cells were lysed by sonication using a Fischer Model 300 Dismembrator and a microtip probe. Following centrifugation at 27,000×g, the supernatant was diluted to a total volume of 60 mL with Buffer A and loaded onto a 2.0×19 cm QAE-Sepharose column (1 mL/min, 4° C.), that had been equilibrated in Buffer A. The column was washed isocratically for 180 min and then eluted with a gradient eluent of 0-1.0M sodium chloride in Buffer A over 120 min. Enzymatic activity was measured by HPLC using the synthetic peptide SQNYPIV as described in Margolin et al., Biochem. Biophys. Res. Commun., 167, 554-560 (1990); the production of the p1 peptide (SQNY) was measured.
The active fractions were combined, made 1.2M in ammonium sulfate, and applied to a 2.0×18 cm hexyl agarose column that had been equilibrated in Buffer A containing 1.2M ammonium sulfate. The sample was loaded at a flow rate of 1 mL/min at 4° C., washed with the equilibration buffer for 240 min (1 mL/min) and then eluted using a reverse linear gradient of 1.2-0M ammonium sulfate in Buffer A for 120 min at the same flow rate. The column was then washed isocratically in Buffer A for 120 min.
The active fractions were combined, concentrated to 10 mL using an Amicon stirred cell with a YM-10 membrane and then applied to a MonoS cation exchange column (1.0×10 cm) that had been equilibrated in Buffer A. The sample was loaded at a flow rate of 1 mL/min at 25° C. After washing isocratically for 30 min, the protease was eluted using a linear gradient of 0-0.45M sodium chloride in Buffer A over 40 min. The column was washed isocratically in Buffer A containing 0.45M sodium chloride for 30 min.
The active fractions were combined and concentrated to 200 μL using an Amicon stirred cell and a YM-10 membrane and then the protease was applied to a Superose 6 size exclusion column equilibrated in Buffer A containing 0.1M sodium chloride.
The purified peptide was labeled with a fluorescent marker at the C-terminal end for use in the Pandex assay. N^α -Biotin-[…]OH SEQ ID NO:3. (1.206 g, 0.936 mmol) was dissolved in 100 mL of 0.1M sodium borate, pH 9.5. Then, a solution of 3 g (7.7 mmol) of fluorescein isothiocyanate in 15 mL dimethyl sulfoxide was added to the reaction mixture in 10 equal portions over two hours. The resulting mixture was allowed to react for one hour after the final addition. The solution was adjusted to pH 3 using 5N hydrochloric acid, resulting in the formation of a precipitate which was removed by centrifugation.
E. Fluorescence HIV-1 Protease Inhibitor Assay
The following buffers and solutions are used in the Fluorescence HIV-1 Protease Inhibitor Assay:
MES-ALB Buffer: 0.05M 4-morpholineethane
Avidin Coated 0.1% solution of Fluoricon
Beads Solution: Avidin Assay Particles
(Avidin conjugated to solid
polystyrene beads, 0.6-0.8
microns in diameter in TBSA
27 IU/mL of purified HIV-1
protease in MES-ALB buffer
(1 IU equals the amount of
enzyme required to hydrolyze
1 μmole of substrate per
To each well of a round bottom, 96-well plate is added 20 μL of the Enzyme Solution followed by 10 μL of the compound to be evaluated in a 20% aqueous dimethylsulfoxide solution. Purified HIV-1 protease was obtained as described above.

Row | SMILES | IC8
1 | CC(C)(C)NC(=O)c1ccccc1C[C@@H](O)[C@H](Cc1ccccc1)NC(=O)[C@H](CC(=O)OCc1ccccc1)NC(=O)OC(C)(C)C [Example 31A, [2R-(2R*,3S*,6S*)]-N-t-Butyl-2-[2-hydroxy-3-phenylmethyl-4-aza-5-oxo-6-N(t-butoxycarbonyl)amino-7-benzyloxycarbonyl]heptyl benzamide] | 1 µg/mL

Same assay, conditions: read-out: Fluorescence Assay IC12

Row | IC12 | SMILES
2 | 1 µg/mL | CC(=O)N[C@@H](CSCc1ccccc1)C(=O)N[C@@H](Cc1ccccc1)[C@H](O)Cc1ccccc1C(=O)NC(C)(C)C [Example 32, [2R-(2R*,3S*,6R*)]-N-t-Butyl-2-[2-hydroxy-3-phenylmethyl-4-aza-5-oxo-6-N-(ethanoyl)amino-7-benzylthio]heptyl benzamide]

Same assay, conditions: read-out: Fluorescence Assay IC30

Row | IC30 | SMILES
3 | 1 µg/mL (≈ 1.6 µM) | CC(C)(C)NC(=O)c1ccccc1C[C@@H](O)[C@H](Cc1ccccc1)NC(=O)[C@H](CC(=O)OCc1ccccc1)NS(C)(=O)=O [Example 31C, [2R-(2R*,3S*,6S*)]-N-t-Butyl-2-[2-hydroxy-3-phenylmethyl-4-aza-5-oxo-6-N(methylsulfonyl)amino-7-benzyloxycarbonyl]heptyl benzamide]

Same assay, conditions: read-out: Fluorescence Assay IC45

Row | IC45 | SMILES
4 | 1 µg/mL (≈ 1.89 µM) | CC(=O)N[C@H](Cc1ccccc1)C(=O)N[C@@H](Cc1ccccc1)[C@H](O)Cc1ccccc1C(=O)NC(C)(C)C [Example 26, [2R-(2R*,3S*,6R*)]-N-t-Butyl-2-[2-hydroxy-3-phenylmethyl-4-aza-5-oxo-6-N-(ethanoyl)amino-7-phenyl]heptyl benzamide]

Same assay, conditions: read-out: Fluorescence Assay IC50 (converted)

Row | SMILES | IC50
5 | CC(=O)N[C@H](CSc1ccc2ccccc2n1)C(=O)N[C@@H](Cc1ccccc1)[C@H](O)Cc1ccccc1C(=O)NC(C)(C)C [Example 24A, [2R-(2R*,3S*,6S*)]-N-t-Butyl-2-[2-hydroxy-3-phenylmethyl-4-aza-5-oxo-6-N(ethanoyl)amino-7-quinolin-2-ylthio]heptyl benzamide] | 3.75 nM
6 | CC(=O)N[C@H](C[S+]([O-])c1ccc2ccccc2n1)C(=O)N[C@@H](Cc1ccccc1)[C@H](O)Cc1ccccc1C(=O)NC(C)(C)C (stereo partly drawn) [Example 24B, [2R-(2R*,3S*,6S*)]-N-t-Butyl-2-[2-hydroxy-3-phenylmethyl-4-aza-5-oxo-6-N(ethanoyl)amino-7-quinolin-2-ylsulfinyl]heptyl benzamide] | 0.207 nM
7 | CC(=O)N[C@H](CS(=O)(=O)c1ccc2ccccc2n1)C(=O)N[C@@H](Cc1ccccc1)[C@H](O)Cc1ccccc1C(=O)NC(C)(C)C [Example 24C, [2R-(2R*,3S*,6S*)]-N-t-Butyl-2-[2-hydroxy-3-phenylmethyl-4-aza-5-oxo-6-N(ethanoyl)amino-7-quinolin-2-ylsulfonyl]heptyl benzamide] | 0.248 nM
8 | CC(=O)N[C@H](Cc1c[nH]c2ccccc12)C(=O)N[C@@H](Cc1ccccc1)[C@H](O)Cc1ccccc1C(=O)NC(C)(C)C [Example 25, [2R-(2R*,3S*,6R*)]-N-t-Butyl-2-[2-hydroxy-3-phenylmethyl-4-aza-5-oxo-6-N-(ethanoyl)amino-7-indol-3-yl]heptyl benzamide] | > 1760 nM
9 | CC(C)(C)NC(=O)c1ccccc1C[C@@H](O)[C@H](Cc1ccccc1)NC(=O)[C@H](CC(N)=O)NS(=O)(=O)c1ccccn1 [Example 29C, [2R-(2R*,3S*,6S*)]-N-t-Butyl-2-[2-hydroxy-3-phenylmethyl-4-aza-5-oxo-6-N(pyrid-2-ylsulfonyl)amino-7-carbamoyl]heptyl benzamide] | 371 nM
10 | CC(C)(C)NC(=O)c1ccccc1C[C@@H](O)[C@H](Cc1ccccc1)NC(=O)[C@H](CC(N)=O)NS(=O)(=O)c1cccc2cccnc12 [Example 30, [2R-(2R*,3S*,6S*)]-N-t-Butyl-2-[2-hydroxy-3-phenylmethyl-4-aza-5-oxo-6-N(quinolin-8-ylsulfonyl)amino-7-carbamoyl]heptyl benzamide] | 18.6 nM
11 | CC(C)(C)NC(=O)c1ccccc1C[C@@H](O)[C@H](Cc1ccccc1)NC(=O)[C@H](CC(N)=O)NS(=O)(=O)c1cccc2ccccc12 [Example 33, [2R-(2R*,3S*,6S*)]-N-t-Butyl-2-[2-hydroxy-3-phenylmethyl-4-aza-5-oxo-6-N (naphth-1-ylsulfonyl)amino-7-carbamoyl]heptyl benzamide] | 68.2 nM
12 | CC(C)(C)NC(=O)c1ccccc1C[C@@H](O)[C@H](Cc1ccccc1)NC(=O)[C@H](CC(N)=O)NS(=O)(=O)c1ccc2ccccc2c1 [Example 34, [2R-(2R*,3S*,6S*)]-N-t-Butyl-2-[2-hydroxy-3-phenylmethyl-4-aza-5-oxo-6-N (naphth-2-ylsulfonyl)amino-7-carbamoyl]heptyl benzamide] | 2.02 nM
13 | CC(C)(C)NC(=O)c1ccccc1C[C@@H](O)[C@H](Cc1ccccc1)NC(=O)[C@H](CC(N)=O)NS(=O)(=O)CCc1cccc2ccccc12 [Example 35, [2R-(2R*,3S*,6S*)]-N-t-Butyl-2-[2-hydroxy-3-phenylmethyl-4-aza-5-oxo-6-N (naphth-1-ylethylsulfonyl)amino-7-carbamoyl]heptyl benzamide] | 1.04 nM
14 | CC(C)(C)NC(=O)c1ccccc1C[C@@H](O)[C@H](Cc1ccccc1)NC(=O)[C@@H](CSc1ccc(F)cc1)NC(=O)OC(C)(C)C [Example 37A, [2R-(2R*,3S*,6S*)]-N-t-Butyl-2-[2-hydroxy-3-phenylmethyl-4-aza-5-oxo-6-N(t-butoxycarbonyl)amino-7-(p-fluorophenylthio)]heptyl benzamide] | > 1570 nM
15 | Cn1nnnc1SC[C@@H](NC(=O)OC(C)(C)C)C(=O)N[C@@H](Cc1ccccc1)[C@H](O)Cc1ccccc1C(=O)NC(C)(C)C [Example 39A, [2R-(2R*,3S*,6S*)]-N-t-Butyl-2-[2-hydroxy-3-phenylmethyl-4-aza-5-oxo-6-N(t-butoxycarbonyl)amino-7-N-(methyl)tetrazolylthio]heptyl benzamide] | > 1600 nM

More lines, now with the values ahead:

Row | IC50 | SMILES
16 | 5330 nM | CC(C)(C)NC(=O)c1ccccc1C[C@@H](O)[C@H](Cc1ccccc1)NC(=O)[C@H](N)CSc1ccc(F)cc1 [Example 37B, [2R-(2R*,3S*,6S*)]-N-t-Butyl-2-[2-hydroxy-3-phenylmethyl-4-aza-5-oxo-6-amino-7-(p-fluorophenylthio)]heptyl benzamide]
17 | 1.79 nM | CC(C)(C)NC(=O)c1ccccc1C[C@@H](O)[C@H](Cc1ccccc1)NC(=O)[C@@H](CSc1ccc(F)cc1)NS(C)(=O)=O [Example 37C, [2R-(2R*,3S*,6S*)]-N-t-Butyl-2-[2-hydroxy-3-phenylmethyl-4-aza-5-oxo-6-N(methylsulfonyl)amino-7-(p-fluorophenylthio)]heptyl benzamide]
18 | 0.158 nM | CC(C)(C)NC(=O)c1ccccc1C[C@@H](O)[C@H](Cc1ccccc1)NC(=O)[C@@H](C[S+]([O-])c1ccc(F)cc1)NS(C)(=O)=O (stereo partly drawn) [Example 37D, [2R-(2R*,3S*,6S*)]-N-t-Butyl-2-[2-hydroxy-3-phenylmethyl-4-aza-5-oxo-6-N(methylsulfonyl)amino-7-(p-fluorophenylsulfinyl)]heptyl benzamide]
19 | 14.6 nM | Cn1nnnc1SC[C@@H](NS(C)(=O)=O)C(=O)N[C@@H](Cc1ccccc1)[C@H](O)Cc1ccccc1C(=O)NC(C)(C)C [Example 39C, [2R-(2R*,3S*,6S*)]-N-t-Butyl-2-[2-hydroxy-3-phenylmethyl-4-aza-5-oxo-6-N(methylsulfonyl)amino-7-N-(methyl)tetrazolylthio)]heptyl benzamide]
20 | 1.4 nM | Cn1nnnc1[S+]([O-])C[C@@H](NS(C)(=O)=O)C(=O)N[C@@H](Cc1ccccc1)[C@H](O)Cc1ccccc1C(=O)NC(C)(C)C (stereo partly drawn) [Example 39D, [2R-(2R*,3S*,6S*)]-N-t-Butyl-2-[2-hydroxy-3-phenylmethyl-4-aza-5-oxo-6-N(methylsulfonyl)amino-7-N-(methyl)tetrazolylsulfinyl)]heptyl benzamide]
